Data as given in article PMC11066877, “Development and Characterization of Novel FAP-Targeted Theranostic Pairs: A Bench-to-Bedside Study” (Research, 2023).
Where two headings read alike, the source gives them in different places.

Assays:
[1] = microPET/CT imaging, ROI analysis, BxPC-3 tumor models; format: in vivo, mice; conditions: nude (thymus-free), mouse, intravenous, 3 MBq, 1 h after tracer injection
Description: (§1) A human pancreatic cancer cell line BxPC-3 and a murine pancreatic cancer cell Panc-02 were obtained from the American Type Culture Collection. The pancreatic cancer cell line T3M-4 was purchased by MeisenCTCC (Zhejiang, China). BxPC-3 and T3M-4 cell lines were grown in RPMI 1640 medium (Shanghai BasalMedia Technologies Co., LTD.) containing 10% FBS (GE Healthcare, Chicago, IL, USA) and 1% penicillin–streptomycin solution (Invitrogen). To culture the Panc-02 cell line, a medium called Dulbecco’s modified Eagle medium from Shanghai BasalMedia Technologies Co., LTD. was used, which consisted of 10% FBS. The cell line HT-1080 was grown in MEM medium (Shanghai BasalMedia Technologies Co., LTD.) supplemented with 10% FBS, 1% penicillin-streptomycin solution, and 1% nonessential amino acids (NEAA-11140050; Gibco). A human fibrosarcoma cell line was stably transfected with FAP (HT1080-FAP) and cultured, as we previously described. All cell lines were cultured in a humid incubator with 5% CO2 at a temperature of 37 °C. Approval was granted by the Institutional Animal Care and Use Committee (Renji Hospital, School of Medicine, Shanghai Jiao Tong University) for all experimental protocols and procedures related to animal care. Panc-02 cells were implanted by subcutaneous injection of 5 × 10^6 tumor cells suspended in 100 μl PBS and matrigel matrix (Corning) with equal volume into the upper limb flank of C57BL/6 mice (Shanghai Sheng Chang Biotechnology Co., Ltd.). Four- to 6-week-old thymus-free nude mice (GemPharmatech) were subcutaneously inoculated with BxPC-3, T3M-4, HT-1080, and HT1080-FAP cells (5 × 10^6 in 100 μl of PBS mixing with 100 μl matrigel matrix) in the right shoulder. […]
(§2) MicroPET imaging was performed on isoflurane-anesthetized mice injected intravenously via the lateral tail vein with around 3 MBq (2.5 nmol) of the radioligand at certain times. […] The information was analyzed using OsiriX Lite software (Pixmeo SARL) and Inveon Research Workplace (Siemens Preclinical Solutions). […]

[2] = microPET/CT imaging, ROI analysis, Panc-02 tumor models; format: in vivo, mice; conditions: C57BL/6, mouse, intravenous, 3 MBq, 1 h after tracer injection
Description: as §1, §2

[3] = microPET/CT imaging, ROI analysis, HT-1080 tumor models; format: in vivo, mice; conditions: nude (thymus-free), mouse, intravenous, 3 MBq, 30 min p.i.
Description: as §1, §2

[4] = microPET/CT imaging, ROI analysis, HT1080-FAP tumor models; format: in vivo, mice; conditions: nude (thymus-free), mouse, intravenous
Description: (§3) A human pancreatic cancer cell line BxPC-3 and a murine pancreatic cancer cell Panc-02 were obtained from the American Type Culture Collection. The pancreatic cancer cell line T3M-4 was purchased by MeisenCTCC (Zhejiang, China). BxPC-3 and T3M-4 cell lines were grown in RPMI 1640 medium (Shanghai BasalMedia Technologies Co., LTD.) containing 10% FBS (GE Healthcare, Chicago, IL, USA) and 1% penicillin–streptomycin solution (Invitrogen). To culture the Panc-02 cell line, a medium called Dulbecco’s modified Eagle medium from Shanghai BasalMedia Technologies Co., LTD. was used, which consisted of 10% FBS. The cell line HT-1080 was grown in MEM medium (Shanghai BasalMedia Technologies Co., LTD.) supplemented with 10% FBS, 1% penicillin-streptomycin solution, and 1% nonessential amino acids (NEAA-11140050; Gibco). A human fibrosarcoma cell line was stably transfected with FAP (HT1080-FAP) and cultured, as we previously described. All cell lines were cultured in a humid incubator with 5% CO2 at a temperature of 37 °C. Approval was granted by the Institutional Animal Care and Use Committee (Renji Hospital, School of Medicine, Shanghai Jiao Tong University) for all experimental protocols and procedures related to animal care. Panc-02 cells were implanted by subcutaneous injection of 5 × 10^6 tumor cells suspended in 100 μl PBS and matrigel matrix (Corning) with equal volume into the upper limb flank of C57BL/6 mice (Shanghai Sheng Chang Biotechnology Co., Ltd.). Four- to 6-week-old thymus-free nude mice (GemPharmatech) were subcutaneously inoculated with BxPC-3, T3M-4, HT-1080, and HT1080-FAP cells (5 × 10^6 in 100 μl of PBS mixing with 100 μl matrigel matrix) in the right shoulder. Follow-up microPET/CT imaging and ex vivo biodistribution experiments were performed when the tumor diameter reached 8 to 9 mm.
MicroPET imaging was performed on isoflurane-anesthetized mice injected intravenously via the lateral tail vein with around 3 MBq (2.5 nmol) of the radioligand at certain times. Regarding the FD1 blocking group, an excessive amount of unlabeled FD1 (200-fold) was simultaneously injected with [^68Ga]Ga-DOTA-FD1 into the tail vein of another batch of mice. Images were acquired using an IRIS PET/CT system (Inviscan Imaging Systems). PET data were reconstructed using a nonscatter-corrected 3D-ordered subset expectation […]/maximum a posteriori (OSEM3D/MAP) algorithm. The information was analyzed using OsiriX Lite software (Pixmeo SARL) and Inveon Research Workplace (Siemens Preclinical Solutions). The percentage of injected dose per gram of tissue (%ID/g, mean ± SD) was utilized to present the distribution of tracers in the ROI, encompassing tumor, heart, lung, liver, kidney, and muscle.

[5] = Ex vivo biodistribution after imaging, HT-1080 tumor models; format: in vivo, mice; conditions: nude (thymus-free), mouse, intravenous, 3 MBq, total radioactivity, after imaging at 30 min p.i., read-out: tumor uptake (biodistribution study)
Description: A human pancreatic cancer cell line BxPC-3 and a murine pancreatic cancer cell Panc-02 were obtained from the American Type Culture Collection. The pancreatic cancer cell line T3M-4 was purchased by MeisenCTCC (Zhejiang, China). BxPC-3 and T3M-4 cell lines were grown in RPMI 1640 medium (Shanghai BasalMedia Technologies Co., LTD.) containing 10% FBS (GE Healthcare, Chicago, IL, USA) and 1% penicillin–streptomycin solution (Invitrogen). To culture the Panc-02 cell line, a medium called Dulbecco’s modified Eagle medium from Shanghai BasalMedia Technologies Co., LTD. was used, which consisted of 10% FBS. The cell line HT-1080 was grown in MEM medium (Shanghai BasalMedia Technologies Co., LTD.) supplemented with 10% FBS, 1% penicillin-streptomycin solution, and 1% nonessential amino acids (NEAA-11140050; Gibco). […]
After imaging collection and image reconstruction, samples from euthanized experimental mice, including blood and multiple significant organs, were harvested and weighed. The radioactivity in each collected tissue was counted using an automated gamma counter (Wizard 2480, PerkinElmer) and the accumulation of radioactivity in different tissues and organs was quantified and expressed as %ID/g (mean ± SD). […] At the end of each probe imaging and radioactivity counting study, tumor tissues were fixed in paraformaldehyde tissue fixative. […]

[6] = Ex vivo biodistribution after imaging, HT1080-FAP tumor models; format: in vivo, mice; conditions: nude (thymus-free), mouse, intravenous, total radioactivity
Description: as §3
After imaging collection and image reconstruction, samples from euthanized experimental mice, including blood and multiple significant organs, were harvested and weighed. The radioactivity in each collected tissue was counted using an automated gamma counter (Wizard 2480, PerkinElmer) and the accumulation of radioactivity in different tissues and organs was quantified and expressed as %ID/g (mean ± SD). [^177Lu]Lu-DOTA-FD1 (~1.11 MBq, n = 3), [^177Lu]Lu-DOTA-FD2 (~1.11 MBq, n = 3), and [^177Lu]Lu-DOTA-FD3 (~1.11 MBq, n = 3) were injected into the tail vein of free nude mice at 6 h, 24 h, and 24 h for ex vivo biodistribution to verify the circulation time of the 3 probes in vivo. Biodistribution data from tumor-bearing mice injected with [^177Lu]Lu-DOTA-FD3 at 45 h (~1.11 MBq, n = 4) and 90 h (~1.11 MBq, n = 3) validated the prolonged enrichment of the probe at the tumor site. At the end of each probe imaging and radioactivity counting study, tumor tissues were fixed in paraformaldehyde tissue fixative. Briefly, sections of 10 μm were cut and stained for H&E following the standard protocols. IHC staining with a FAP antibody (ab227703, Abcam) was performed only on tumor tissues following accepted techniques.

[7] = [68Ga]Ga-DOTA-FD1 PET/CT imaging in tumor patients; format: in vivo, human; conditions: human
Description: (§4) This clinical trial received ethical approval from the institutional review board of The First Affiliated Hospital of Xiamen University and has been registered at ClinicalTrials.gov (NCT04849247). All healthy volunteers (n = 3) and patients (n = 6) provided written informed consent before participation. There was no need for any particular preparation for [^68Ga]Ga-DOTA-FD1 PET/CT. Each participant was administered a dose of [^68Ga]Ga-DOTA-FD1 at a rate of 3.0 to 3.7 MBq/kg. Adverse events were under observation for 4 h after the injection of [^68Ga]Ga-DOTA-FD1. A hybrid PET/CT system (Discovery MI, GE Healthcare, Milwaukee, WI, USA) was used to perform static PET/CT imaging after 60 min of injection. PET/CT scan was conducted from the head region to the upper thighs (for [^68Ga]Ga-DOTA-FD1 PET/CT). For the CT scan, the parameters utilized were 110 kV, 80 mA, and a slice thickness measuring 3.75 mm. The obtained data were transferred to the Advantage Workstation (version AW 4.7, GE Healthcare). The Bayesian penalized likelihood reconstruction algorithm (Q.clear, GE Healthcare) was utilized for image reconstruction, employing a penalization factor (beta) of 500. For tumor staging/restaging, a total of 6 patients received paired PET/CT imaging using [^68Ga]Ga-DOTA-FD1. In terms of quantitative assessment, the maximum standardized uptake value (SUVmax) and the mean SUV (SUVmean) were employed to quantify the uptake of the radiopharmaceutical in both normal organs and tumor tissues.

[8] = test system: tumor lesions of patients; assay: [68Ga]Ga-DOTA-FD1 PET/CT imaging in tumor patients; format: in vivo, human; conditions: for Lymph node metastases Median SUVmax (range) / Primary tumor Median SUVmax: initial staging
Description: as §4

[9] = Safety and biodistribution of [68Ga]Ga-DOTA-FD1 in healthy volunteers and patients; format: in vivo, human
Description: as §4, with “For tumor staging/restaging, a total of 6 patients received paired PET/CT imaging using [^68Ga]Ga-DOTA-FD1.” left out

- tissue uptake at 1 h [1]: 0.96 ± 0.07 %ID/g
- tissue uptake at 1 h [2]: 0.92 ± 0.22 %ID/g
- tissue uptake at 0.5 h [3]: 1.97 ± 0.45 %ID/g
- tissue uptake ([4]; 750 ug, HT1080-FAP tumor, co-injected excess unlabeled FD1 (750 μg), read-out: tumor uptake (ROI analysis) upon FD1 blocking): 2.63 ± 1.28 %ID/g
- tissue uptake ([4]; 3 MBq, HT1080-FAP tumor, without blocking, read-out: tumor uptake (ROI analysis)): 8.85 ± 3.3 %ID/g
- tissue uptake ([4]; kidney, 750 ug, HT1080-FAP models, co-injected excess unlabeled FD1 (750 μg), read-out: kidney accumulation (ROI analysis) upon FD1 blocking): 10.3 ± 1.67 %ID/g
- tissue uptake ([4]; kidney, 3 MBq, HT1080-FAP models, without blocking, read-out: kidney accumulation (ROI analysis)): 40.6 ± 4.76 %ID/g
- tissue uptake at 0.5 h [5]: 1.02 ± 0.41 %ID/g
- tissue uptake ([6]; 750 ug, HT1080-FAP tumor, co-injected excess unlabeled FD1 (750 μg), read-out: tumor uptake (biodistribution) upon FD1 blocking): 2.15 ± 0.58 %ID/g
- tissue uptake ([6]; 3 MBq, HT1080-FAP tumor, without blocking, read-out: tumor uptake (biodistribution study)): 19.2 ± 6.51 %ID/g
- tissue uptake ([6]; kidney, 750 ug, HT1080-FAP models, co-injected excess unlabeled FD1 (750 μg), read-out: kidney accumulation (biodistribution analysis) upon FD1 blocking): 30.3 ± 4.45 %ID/g
- tissue uptake ([6]; kidney, 3 MBq, HT1080-FAP models, without blocking, read-out: kidney accumulation (biodistribution analysis)): 110 ± 27.1 %ID/g
- SUV at 1 h ([7]; primary tumour lesions, 4 primary lesions, initial staging patients, 60 min after injection, read-out: median SUVmax of primary lesions): 8.86 SUV
- SUV at 1 h ([7]; 15 lymph node metastases in 3 patients, read-out: median SUVmax of lymph node metastases): 5.6 SUV
- Bone and visceral metastases Median SUVmax (range) ([8]; Patient 1, thyroid cancer, recurrence detection): 2.87 (2.52–4.45)
- Lymph node metastases Median SUVmax (range) ([8]; Patient 3, esophagus cancer): 4.29 (4.02–4.57)
- Primary tumor Median SUVmax ([8]; Patient 3, esophagus cancer): 7.64
- Lymph node metastases Median SUVmax (range) ([8]; Patient 4, NPC): 5.67 (4.14–7.76)
- Primary tumor Median SUVmax ([8]; Patient 4, NPC): 5.27
- Primary tumor Median SUVmax ([8]; Patient 5, esophagus cancer): 10.07
- Primary tumor Median SUVmax ([8]; Patient 6, esophagus cancer): 13.42
SMILES: CCCCCC(=O)N[C@H]1CSCc2cc(CSCCNC(=O)[C@H](CCCCN)NC(=O)[C@@H](NC(=O)[C@H](CCSC)NC(=O)CN3CCN(CC(=O)O)CCN(CC(=O)O)CCN(CC(=O)O)CC3)C(C)C)cc(c2)CSC[C@@H](C(=O)O)NC(=O)[C@H](Cc2ccccc2)NC(=O)[C@H](CCC(N)=O)NC(=O)[C@H]([C@@H](C)O)NC(=O)[C@@H]2CCCN2C(=O)[C@@H]2CCCN2C1=O [[^68Ga]Ga-DOTA-FD1, metal not drawn]
- uptake in normal tissues and organs ([9]; healthy volunteers (n = 3), PET 60 min after injection): negligible uptake in normal tissues and organs except the kidneys
- adverse events ([9]; healthy volunteers and patients, during the injection and at 4 h follow-up, 3.0 to 3.7 MBq/kg): No adverse events were observed
